Experimental data from patent US10189795B2, “Aryl amine substituted quinoxaline used as anticancer drugs” (priority 2014, dated 2019).

Tests used:
Type in all cases: cell-based
NCI-1703 = test: cell viability of NCI-1703 cells, 1 and 10 uM of each erlotinib derivative, and IC50; details: Homo sapiens; for IC50: cell viability
Protocol: [Worded in the source for another cell line; this cell line is reported under the same test.] (§1) Sorafenib (Nexavar), erlotinib (Tarceva) and Paclitaxel were kindly provided by Bayer Pharmaceuticals (Pittsburgh, Pa., USA) and Roche Pharmaceuticals (Basel, Switzerland) respectively. Okadaic acid (OA) was purchased from Cayman Chemical (Ann Arbor, Mich., USA) and z-VAD-fmk was obtained from Sigma (St. Louis, Mo., USA). For in vitro studies, drugs at various concentrations were dissolved in dimethyl sulfoxide (DMSO), and added to cells in Dulbecco's modified Eagle's medium (DMEM) or Roswell Park Memorial Institute (RPMI) containing 5% fetal bovine serum (FBS).
(§2) The Sk-Hep1, PLC/PRF/5 (PLC) and Hep3B cell lines were obtained from American Type Culture Collection (ATCC; Manassas, Va., USA). The Huh-7 HCC cell line was obtained from the Health Science Research Resources Bank (HSRRB; Osaka, Japan; JCRB0403). Cells were maintained in DMEM supplemented with 10% FBS in a 37° C. humidified incubator in an atmosphere of 5% CO^2 in air.

NCI-H226 = test: cell viability of NCI-H226 cells, 1 and 10 uM; details: Homo sapiens
Protocol: [Worded in the source for another cell line; this cell line is reported under the same test.] as §1, §2

H2170 = test: cell viability of H2170 cells, 1 and 10 uM; details: Homo sapiens, NCI-H2170
Protocol: [Worded in the source for another cell line; this cell line is reported under the same test.] as §1, §2

H520 = test: cell viability of H520 cells, 1 and 10 uM; details: Homo sapiens, NCI-H520
Protocol: [Worded in the source for another cell line; this cell line is reported under the same test.] as §1, §2

SW900 = test: cell viability of SW900 cells, 1 and 10 uM; details: Homo sapiens
Protocol: [Worded in the source for another cell line; this cell line is reported under the same test.] as §1, §2

A549 = test: cell viability of A549 cells, 1 and 10 uM; details: Homo sapiens
Protocol: [Worded in the source for another cell line; this cell line is reported under the same test.] as §1, §2

H358 = test: cell viability of H358 cells, 1 and 10 uM; details: Homo sapiens, NCI-H358
Protocol: [Worded in the source for another cell line; this cell line is reported under the same test.] as §1, §2

Row | SMILES | viability at 1 µM (NCI-1703) [%] | viability at 10 µM (NCI-1703) [%] | viability at 1 µM (NCI-H226) [%] | viability at 10 µM (NCI-H226) [%] | viability at 1 µM (H2170) [%] | viability at 10 µM (H2170) [%] | viability at 1 µM (H520) [%] | viability at 10 µM (H520) [%] | viability at 1 µM (SW900) [%] | viability at 10 µM (SW900) [%] | IC50 (NCI-1703) [µM] | viability at 1 µM (A549) [%] | viability at 10 µM (A549) [%] | viability at 1 µM (H358) [%] | viability at 10 µM (H358) [%]
1 | Cc1ccc(F)c(Nc2nc3ccccc3nc2Nc2cc(C)ccc2F)c1 [TD58, N^2,N^3-bis(2-fluoro-5-methylphenyl)quinoxaline-2,3-diamine] | 127 ± 2.9 | 98.9 ± 1.1 | 123 ± 3.6 | 74.9 ± 1.5 | 92.8 ± 2.03 | 83 ± 3.41 | 96.2 ± 1.22 | 95.6 ± 4.66 | 111 ± 1.54 | 91.8 ± 9.78 | – | – | – | – | –
2 | c1ccc(Nc2nc3ccccc3nc2Nc2ccccc2)cc1 [TD55, N^2,N^3-diphenylquinoxaline-2,3-diamine] | 64.2 ± 5.3 | 49.9 ± 4.8 | 106 ± 17.3 | 96.4 ± 7.4 | 102.7 ± 0.73 | 94.8 ± 6.05 | 89.9 ± 1.02 | 59.2 ± 15.8 | 100 ± 6.69 | 88.3 ± 1.29 | 8.3 | 100 ± 7.2 | 36.5 ± 5.9 | 110 ± 14.2 | 42.1 ± 0.6
3 | CCc1cccc(Nc2nc3ccccc3nc2Nc2cccc(CC)c2)c1 [TD59, N^2,N^3-bis(3-ethylphenyl)quinoxaline-2,3-diamine] | 114 ± 7.4 | 26.4 ± 0.7 | 122 ± 2.6 | 32.5 ± 2.5 | 88.4 ± 2.01 | 8.96 ± 1.43 | 88.3 ± 1.5 | 0.41 ± 0.32 | 110 ± 1.8 | – | – | 164.6 ± 0.1 | 24.1 ± 3.9 | 117 ± 12.1 | 19 ± 1.5
4 | COc1ccc(Nc2nc3ccc([N+](=O)[O-])cc3nc2Nc2ccc(F)cc2)cc1 [TD631, N^3-(4-fluorophenyl)-N^2-(4-methoxyphenyl)-6-nitroquinoxaline-2,3-diamine] | 42.5 ± 2.8 | – | 35.8 ± 6.9 | – | – | – | – | – | – | – | – | 58.9 ± 3.1 | – | 40.4 ± 1.9 | –
5 | COc1ccc(Nc2nc3ccc([N+](=O)[O-])cc3nc2Nc2ccc(C(F)(F)F)cc2)cc1 [TD626, N^3-(4-(trifluoromethyl)phenyl)-N^2-(4-methoxyphenyl)-6-nitroquinoxaline-2,3-diamine] | 111 ± 1.3 | – | 39 ± 2.2 | – | – | – | – | – | – | – | – | 40.4 ± 0.8 | – | 24.3 ± 3.6 | –
6 | NS(=O)(=O)c1ccc(Nc2nc3ccc([N+](=O)[O-])cc3nc2Nc2ccc(S(N)(=O)=O)cc2)cc1 [TD629, N^2,N^3-bis(4-phenylsulfonamide)-6-nitroquinoxaline-2,3-diamine] | 132.8 ± 1 | – | 140 ± 1.6 | – | – | – | – | – | – | – | – | 118 ± 1.2 | – | 113 ± 3.6 | –
7 | Cc1cc(Nc2nc3ccc([N+](=O)[O-])cc3nc2Nc2ccc(O)cc2)n[nH]1 [TD628, 4-(2-(5-methyl-1H-pyrazol-3-ylamino)-6-nitroquinoxalin-3-ylamino)phenol] | 147 ± 4.5 | – | 152 ± 1.7 | – | – | – | – | – | – | – | – | – | – | 140 ± 7.3 | –
8 | c1ccc(Oc2ccc(Nc3nc4ccccc4nc3Nc3ccc(Oc4ccccc4)cc3)cc2)cc1 [TD53, N^2,N^3-bis(4-phenoxyphenyl)quinoxaline-2,3-diamine] | 68.4 ± 1.4 | 46.7 ± 0.2 | 86.2 ± 5.7 | 56.8 ± 2.7 | 99.7 ± 6 | 59.2 ± 1.25 | 101.7 ± 0.34 | 10.6 ± 0.58 | 121 ± 9.01 | – | 7.4 | 99.4 ± 6.9 | 82.7 ± 99.9 | 120 ± 9.2 | 41.9 ± 3.9
9 | COc1ccc(Nc2nc3ccc([N+](=O)[O-])cc3nc2Nc2ccc(OC)cc2)cc1 [TD602, N^2,N^3-bis(4-methoxyphenyl)-6-nitroquinoxaline-2,3-diamine] | 42 ± 1.1 | 9.8 | 98.1 ± 5.9 | 8.1 ± 0.4 | 112 ± 3.97 | 7.14 ± 4.42 | 104 ± 2.31 | 0.89 ± 0.41 | 120 ± 5.8 | 2.05 ± 2.45 | – | 47.4 ± 2.4 | 10 ± 0.8 | 58.3 ± 9.2 | 12 ± 0.5
10 | N#CCc1ccc(Nc2nc3ccccc3nc2Nc2ccc(CC#N)cc2)cc1 [TD62, 2,2′-((quinoxaline-2,3-diylbis(azanediyl))bis(4,1-phenylene))diacetonitrile] | 112 ± 3.6 | 65.2 ± 0.6 | 86 ± 2 | 90.1 ± 8.2 | 92.5 ± 1.41 | 85.3 ± 4.56 | 103 ± 1.7 | 100 ± 2.46 | 128 ± 1.8 | 128 ± 6.18 | – | 166 ± 23.1 | 120 ± 29 | 121 ± 2.2 | 97.4 ± 8.1
11 | COC(=O)c1ccc2nc(Nc3ccc(OC(F)(F)F)cc3)c(Nc3ccc(OC(F)(F)F)cc3)nc2c1 [TD94, methyl 2,3-bis((4-(trifluoromethoxy)phenyl)amino)quinoxaline-6-carboxylate] | 29.9 ± 6.8 | 19.5 ± 1.1 | 32.1 ± 2.7 | 8 ± 0.1 | – | – | – | – | – | – | 0.1 | 49 ± 6.5 | 10.8 ± 0.9 | 13 ± 0.2 | 15.7 ± 5.9
12 | O=[N+]([O-])c1ccc2nc(Nc3cccc(O)c3)c(Nc3cccc(O)c3)nc2c1 [TD613, 3-(2-(3-hydroxyphenylamino)-6-nitroquinoxalin-3-ylamino)phenol] | 86 ± 0.5 | 24.8 ± 2 | 75.5 ± 7.9 | 7 ± 0.3 | 108 ± 1.99 | 11.6 ± 1.38 | 99.45 ± 0.5 | 18.8 ± 0.22 | 116 ± 7.2 | 80.9 ± 3.8 | – | 105 ± 3.4 | 9.5 ± 0.7 | 69.9 ± 60.7 | 12 ± 0.5
13 | FC(F)(F)c1cc(Nc2nc3ccccc3nc2Cl)ccc1Cl [TD79, 3-chloro-N-(4-chloro-3-(trifluoromethyl)phenyl)quinoxalin-2-amine] | 123.7 ± 0.9 | 64.8 ± 4.5 | 131 ± 14.3 | 125 ± 10.5 | 98.5 ± 1.56 | 102 ± 5.66 | 96.6 ± 5.57 | 99 ± 6.01 | 98.9 ± 3.79 | 88.2 ± 19.9 | – | 96.5 ± 4.4 | 71.6 ± 10.1 | 114 ± 2.4 | 87.7 ± 1.8
14 | c1ccc(CNc2nc3ccccc3nc2NCc2ccccc2)cc1 [TD54, N^2,N^3-dibenzylquinoxaline-2,3-diamine] | 127 ± 2 | 96.7 ± 4.2 | 120 ± 4.9 | 110.9 ± 0.8 | 100 ± 4.93 | 79.1 ± 7.69 | 118 ± 3 | 102 ± 1.46 | 125 ± 27 | 126 ± 10.6 | – | – | – | – | –
15 | Clc1cccc(Nc2nc3ccccc3nc2Nc2cccc(Cl)c2)c1 [TD56, N^2,N^3-bis(3-chlorophenyl)quinoxaline-2,3-diamine] | 49.9 ± 4.7 | 28.8 ± 2.3 | 115.4 ± 0.8 | 19 ± 2 | 95 ± 0.91 | 32.5 ± 14.1 | 98.4 ± 6.37 | 4.76 ± 0.24 | 118 ± 5.41 | 1.46 ± 3.6 | – | – | – | – | –
16 | FC(F)(F)c1cccc(Nc2nc3ccccc3nc2Nc2cccc(C(F)(F)F)c2)c1 [TD60, N^2,N^3-bis(3-(trifluoromethyl)phenyl)quinoxaline-2,3-diamine] | 51.9 ± 2.9 | 26.1 ± 0.8 | 92.5 ± 1.7 | 15.9 ± 1 | 72.3 ± 0.89 | 0.41 ± 0.65 | 21.8 ± 1.52 | 0.36 ± 0.18 | 19.3 ± 6.18 | – | – | 91.3 ± 4 | 21.8 ± 1.4 | 55.3 ± 1.9 | 18.1 ± 1.3
17 | O=[N+]([O-])c1ccc2nc(Nc3ccc(F)cc3)c(Nc3ccc(F)cc3)nc2c1 [TD620, N^2,N^3-bis(4-fluorophenyl)-6-nitroquinoxaline-2,3-diamine] | 26.2 ± 0.6 | 21 ± 1.7 | 132 ± 5 | 17.9 ± 0.6 | – | – | – | – | – | – | 0.3 | 48.7 ± 8.4 | 7.8 ± 0.4 | 24.2 ± 1.4 | 12.6 ± 0.7
18 | C#Cc1cccc(Nc2nc3cc([N+](=O)[O-])ccc3nc2Nc2ccc(O)cc2C)c1 [TD625, 4-(2-(3-ethynylphenylamino)-7-nitroquinoxalin-3-ylamino)-3-methylphenol] | 224 ± 7 | – | 115 ± 7.2 | – | – | – | – | – | – | – | – | 73.7 ± 3 | – | 92.6 ± 7.4 | –
19 | O=[N+]([O-])c1ccc2nc(Nc3ccc(Cl)c(F)c3)c(Nc3ccc(Cl)c(F)c3)nc2c1 [TD624, N^2,N^3-bis(4-chloro-3-fluorophenyl)-6-nitroquinoxaline-2,3-diamine] | 90.8 ± 4.8 | – | 15.7 ± 0.8 | – | – | – | – | – | – | – | – | 14.3 ± 3.6 | – | 11.9 ± 1 | –
